Paper PMC12865225 (Clinical and Translational Science, 2026)
Several values for one entry are separate records, joined by “and”; a condition that tells them apart may be missing. Equal values may be shown once. Marks after values point to notes of the source that are not given here.

Key:
OATP2B1 = target: T1, OATP2B1 (Homo sapiens, UniProt O94956); assay: Uptake transport assay in OATP2B1-expressing HEK293 cells; format: cell-based; conditions: for transport by OATP2B1: 2 and 50 μM, 10 min; for Vmax (pmol/106 cells/min) OATP2B1: uptake, 2 min
T1 construct: expressed in transfected cells; host or cells: HEK293 (recombinant baculovirus-mediated transduction)
T1 sequence (O94956 1-709): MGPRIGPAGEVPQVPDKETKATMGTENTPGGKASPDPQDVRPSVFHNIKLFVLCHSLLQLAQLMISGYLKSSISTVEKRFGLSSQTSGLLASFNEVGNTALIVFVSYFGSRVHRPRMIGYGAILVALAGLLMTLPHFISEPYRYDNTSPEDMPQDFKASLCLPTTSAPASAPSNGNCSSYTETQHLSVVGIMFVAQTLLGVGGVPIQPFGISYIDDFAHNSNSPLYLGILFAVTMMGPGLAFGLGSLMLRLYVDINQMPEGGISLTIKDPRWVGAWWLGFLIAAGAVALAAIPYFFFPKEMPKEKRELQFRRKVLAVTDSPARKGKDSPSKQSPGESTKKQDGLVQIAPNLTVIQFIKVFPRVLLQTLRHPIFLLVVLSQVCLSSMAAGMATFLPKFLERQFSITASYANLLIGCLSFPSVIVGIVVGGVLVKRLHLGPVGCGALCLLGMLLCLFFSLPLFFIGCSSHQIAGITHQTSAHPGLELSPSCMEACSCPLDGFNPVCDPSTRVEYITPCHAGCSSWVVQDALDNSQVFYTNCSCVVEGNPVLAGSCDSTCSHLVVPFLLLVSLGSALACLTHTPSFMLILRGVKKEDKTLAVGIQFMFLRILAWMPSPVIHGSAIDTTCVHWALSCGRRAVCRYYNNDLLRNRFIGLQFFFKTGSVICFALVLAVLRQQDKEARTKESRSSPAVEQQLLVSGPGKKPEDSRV
Description: (§1) The human transporters OATP1B1, OATP1B3, OATP2B1, and OAT1‐OAT4 and a negative control protein (enhanced yellow fluorescent protein, eYFP) were transiently expressed in human embryonic kidney 293 (HEK293) cells by recombinant baculovirus‐mediated transduction. Baculoviruses carrying human genes for the transporters were prepared as reported previously. HEK293 cells were cultured in DMEM containing 10% fetal bovine serum at 37°C and 5% CO2 and passaged two to three times per week. For the transport studies, 0.05 × 10^6 cells for 48‐well plates (OATPs) or 0.06 × 10^6 cells for 24‐well plates (OATs) were seeded onto cell‐culture treated well plates coated with poly‐D‐lysine. After 1 day, cells were transduced to produce recombinant proteins by changing media to DMEM containing 30 μL (48‐well plates) or 60 μL (24‐well plates) of recombinant baculovirus and 3 mM (OATs) or 5 mM (OATPs) sodium butyrate in a total media volume of 500 μL. The cells were cultured for a further 2 days before the transport assays.
(§2) For the transport studies, media were removed and cells were washed once with warm transport uptake buffer (TP‐buffer—pH 7.4 HBSS with 25 mM HEPES and 4 mM sodium bicarbonate). Each experiment included triplicate (OATP) or duplicate (OAT) samples for every test condition. The uptake was started by removing liquid from wells and applying warm TP‐buffer (200 μL for 24‐well plates or 125 μL for 48‐well plates) containing a test compound to cells. Transport assays were terminated after a pre‐specified incubation time (reported in figure legends) by removing substrate solution and washing cells three times with cold TP‐buffer (300 μL for 48‐well plates and 400 μL for 24‐well plates). For the liquid chromatography mass spectrometry (LC–MS) analysis, compounds were extracted from cells with 125 μL (48‐well plates) or 250 μL (24‐well plates) of an ultrapure‐water solution containing 75% methanol and 0.1% formic acid, shaking at 250 RPM for 30 min. […] Samples were transferred to well plates, centrifuged at 3000 g for 30 min, and transferred to a new well plate for the analysis.
Equation (2) (the Michaelis–Menten equation) was fit to the transport kinetic assay data. […] (2) Uptake=Vmax×S/Km+S

OATP1B3 = target: T2, OATP1B3 (Homo sapiens, UniProt Q9NPD5); assay: OATP1B3 inhibition, rosuvastatin uptake into transporter-expressing HEK293 cells; format: cell-based; conditions: for IC50: IC50 (95% CI), μM OATP1B3, 2.5 μM rosuvastatin, 2 min, 30 min preincubation; for Calculated R-value OATP1B3: R = 1 + (I in,max,u/IC50), FDA cut-off ≥ 1.1
T2 construct: expressed in transfected cells; host or cells: HEK293 (recombinant baculovirus-mediated transduction)
T2 sequence (Q9NPD5 1-702): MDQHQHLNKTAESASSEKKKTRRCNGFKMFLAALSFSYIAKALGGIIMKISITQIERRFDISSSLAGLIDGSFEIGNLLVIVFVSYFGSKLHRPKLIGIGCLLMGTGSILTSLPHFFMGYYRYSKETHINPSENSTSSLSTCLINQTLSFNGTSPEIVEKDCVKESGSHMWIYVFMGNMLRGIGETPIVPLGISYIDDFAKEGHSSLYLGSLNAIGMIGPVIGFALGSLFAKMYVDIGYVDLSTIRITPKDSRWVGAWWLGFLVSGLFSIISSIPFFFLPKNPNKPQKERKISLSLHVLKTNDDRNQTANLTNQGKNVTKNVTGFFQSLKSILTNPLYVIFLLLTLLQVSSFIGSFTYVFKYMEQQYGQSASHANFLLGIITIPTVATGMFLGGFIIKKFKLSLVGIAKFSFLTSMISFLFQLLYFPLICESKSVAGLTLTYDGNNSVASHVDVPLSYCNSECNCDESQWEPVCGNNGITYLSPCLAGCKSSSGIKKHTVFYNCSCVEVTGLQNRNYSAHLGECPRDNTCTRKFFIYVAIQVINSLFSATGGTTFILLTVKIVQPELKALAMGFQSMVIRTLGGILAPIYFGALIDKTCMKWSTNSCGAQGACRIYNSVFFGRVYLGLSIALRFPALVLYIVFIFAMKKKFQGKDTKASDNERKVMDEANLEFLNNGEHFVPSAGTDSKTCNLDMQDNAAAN
Description: as §1, §2
In the OATP inhibition assays, inhibitors in warm TP‐buffer were directly applied to cells after media removal, followed by a 30‐min preincubation step in the presence of inhibitors. […] OAT1 and OAT3 cells were lysed with 200 μL of 1 M sodium hydroxide for 10 min, and 150 μL of these samples were transferred to a black well plate for fluorescein quantification. […]
For the inhibition data analysis, the average of measured concentrations in the control cells was subtracted from the average of measured concentrations in transporter‐expressing cells for each inhibitor concentration and then normalized to the vehicle sample that represents 100% transport activity. […]

transport by OATP2B1 (OATP2B1) | Vmax (pmol/106 cells/min) OATP2B1 (OATP2B1) [pmol/106 cells/min] | IC50 (OATP1B3) | Calculated R-value OATP1B3 (OATP1B3) | SMILES
transported | 61.5 | 6.7 µM and 6.68 µM | 1.8 ^a | Cc1onc(-c2c(Cl)cccc2Cl)c1C(=O)N[C@@H]1C(=O)N2[C@@H]1SC(C)(C)[C@@H]2C(=O)O [Dicloxacillin]
transported | 74.9 | 21 µM | 1.7 ^a | Cc1onc(-c2c(F)cccc2Cl)c1C(=O)N[C@@H]1C(=O)N2[C@@H]1SC(C)(C)[C@@H]2C(=O)O [Flucloxacillin]
